Test results as given in patent publication US9814727B2, “Piperazine phenothiazine derivatives for treating spasticity” (UNIVERSITE D'AIX-MARSEILLE, priority 2014, dated 2017).

Key:
[1] = system: KCC2; assay: FluxOR fluorescence based thallium (Tl+) influx assay on KCC2-expressing HEK293 cells; type: cell-based; conditions: for effect on KCC2 activity, normalized to the maximal effect obtained with compound 1: 30 μM, HEK KCC2 cells, 15 minutes incubation
Experimental: Wild-type or KCC2-expressing Human Embryonic Kidney (HEK) 293 cells (provided by Prof. Eric Delpire Department of Anesthesiology, Vanderbilt University Medical Center, Nashville, Tenn.) were grown up to 80-90% confluence in DMEM/Ham's F-12 (1:1) (Life technologies, Carlsbad, Calif., USA) supplemented with 10% FBS (Life technologies), 50 units/mL penicillin, and 50 µg/mL streptomycin (Life technologies). KCC2-expressing clones were under puromycin selection (20 μg/ml, Life technologies).
The FluxOR™ potassium ion channel assay (Life Technologies Carlsbad, Calif., USA) was performed as outlined in the product information sheet and an earlier published study (Delpire et al., 2009, Proc. Natl. Acad. Sci. USA, 106, 5383-88) to assess KCC2 activity, and adapted to semi-automated high throughput screening. The experiment was performed in the presence of ouabain 200 μM and bumetanide 10 μM in all buffers to block the Na^+/K^+ pump and NKCC1 cotransporters, respectively. Briefly, cells in suspension were incubated in the loading buffer containing the dye at room temperature for 90 min (1/2000 dilution of FluxOR reagent) at the density of 100.000 cells/75 μl, then centrifugated and resuspended in Assay buffer at the same cell density. A number of 100.000 cells (75 μl) were manually handled in each well to the 96-wells black-walled, μclear-bottom plates (Greiner Bio-One, Monroe, N.C., USA) and 5 μl of chemical compounds 1-8 at different concentrations in PBS 1% DMSO (5, 30 and 50 μM) were added to the plates using the Biomek® NX Laboratory automation workstation (Beckman Coulter, Villepinte, France). After 15 minutes incubation, baseline fluorescent signal was measured with the Polarstar omega microplate reader (490 nm excitation and 520 nm emission, BMG Labtech). Then 20 μL per well of 5× thallium stimulus buffer (final concentrations: Tl^+: 2 mM, K^+: 10 mM) was injected and fluorescent signal was read 30 minutes later.
For each plate, 2 columns were dedicated to controls (cell density range from 0.25 to 1.10^5 cells; loading buffer as blank; untreated or treated with NEM (33 μM, for 15 min) wild-type and KCC2-expressing HEK293 cells).
Baseline fluorescent value was subtracted from the fluorescent value measured 30 min after stimulus buffer injection for each well, and this difference was normalized to the number of cells. […] Values converted to percentages such that the maximum of ratio is 100%.

[2] = system: HEK cells; assay: PrestoBlue cell viability assay (cytotoxicity); type: cell-based, Human; conditions: 30 μM
Experimental: Cytotoxicity were evaluated with fluorescent viability assay on HEK cells lines incubated 1 h with several concentrations of drugs. TC50: Toxic Concentration for 50% of the population.
After stimulus buffer induced signal acquisition, PrestoBlue® Cell Viability Reagent (Life technologies), a cell permeable resazurin-based solution was used according to manufacturer procedure as a cell viability indicator (Excitation/Emission (nm): 535-560/590-615).

CN1CCN(CCCN2c3ccccc3Sc3ccccc32)CC1 [compound 7, 10-[3-(4-methylpiperazin-1-yl)propyl]-10H-phenothiazine]
effect on KCC2 activity, normalized to the maximal effect obtained with compound 1 [1]: 55%

CCSc1ccc2c(c1)N(CCCN1CCN(C)CC1)c1ccccc1S2 [compound 8, 2-(ethylthio)-10-[3-(4-methylpiperazin-1-yl)propyl]-10H-phenothiazine]
cytotoxicity [2]: cytotoxic

OCCN1CCN(CCCN2c3ccccc3Sc3ccc(Cl)cc32)CC1 [compound 1, 2-[4-[3-(2-chloro-10H-phenothiazin-10-yl)propyl]piperazin-1-yl]ethanol]
effect on KCC2 activity, normalized to the maximal effect obtained with compound 1 [1]: 100%
specific activation of KCC2 across a dose range ([1]; HEK KCC2 compared to WT HEK cells, non-cytotoxic dose range): activate specifically KCC2 in a dose dependant manner
